These results are taken from patent US6380237B1, “Diphenylimidazolines” (Bayer Aktiengesellschaft, priority 1998, dated 2002).

Data set [1] deals with caterpillars of the army worm (Spodoptera frugiperda). The experiment in a line: Spodoptera frugiperda test. Type of data set: in vivo. Conditions: active compound concentration of 0.1%, after 7 days, dipped cabbage leaves. The protocol:
Spodoptera frugiperda test
(§1) Solvent: 7 parts by weight of dimethylformamide
(§2) Emulsifier: 1 part by weight of alkylaryl polyglycol ether
To prepare a suitable preparation of active compound, 1 part by weight of active compound is mixed with the stated amount of solvent and emulsifier, and the concentrate is diluted with water to the desired concentration.
Cabbage leaves (Brassica oleracea) are treated by being dipped into the preparation of active compound of the desired concentration and populated with caterpillars of the army worm (Spodoptera frugiperda) while the leaves are still moist.
After the desired period of time, the kill in % is determined. 100% means that all caterpillars have been killed; 0% means that none of the caterpillars have been killed.

Data set [2] relates to all stages of the greenhouse red spider mite (Tetranychus urticae). Briefly: Tetranychus test (OP-resistant/dip treatment). Type of data set: in vivo. The method, then:
Tetranychus test (OP-resistant/dip treatment)
as §1, §2
To produce a suitable preparation of active compound, 1 part by weight of active compound is mixed with the stated amount of solvent and emulsifier, and the concentrate is diluted with emulsifier-containing water to the desired concentration.
Bean plants (Phaseolus vulgaris) which are heavily infested by all stages of the greenhouse red spider mite (Tetranychus urticae) are dipped into a preparation of active compound of the desired concentration.
After the desired period of time, the effect in % is determined. 100% means that all spider mites have been killed, 0% means that none of the spider mites have been killed.

A further data set concerns Lucilia cuprina larvae. Briefly: Blowfly larvae test/development-inhibitory action. It is filed as in vivo. Particulars: active compound concentration of 100 ppm; 100% means that none of the flies have hatched. The method, then:
Blowfly larvae test/development-inhibitory action
Test animals: Lucilia cuprina larvae
Solvent: Dimethylsulfoxide
20 mg of active compound are dissolved in 1 ml of dimethyl suiphoxide, and more dilute concentrations are prepared by dilution with dist. water.
Approximately 20 Lucilia cuprina larvae are introduced into a test tube which contains approximately 1 cm^3 of horse meat and 0.5 ml of the active compound preparation to be tested. After 24 and 48 hours, the efficacy of the preparation of active compound is determined. The test tubes are transferred into a beaker with sand-covered bottom. After a further 2 days, the test tubes are removed and the pupae are counted.
The effect of the preparation of active compound is assessed by the number of the flies which have hatched after 1.5 times the development time of an untreated control. 100% means that none of the flies have hatched; 0% means that all flies have hatched normally.

Data set [3] relates to mustard beetle larvae (Phaedon cochleariae). Briefly: Phaedon larvae test. Type of data set: in vivo. Particulars: active compound concentration of 0.1%, after 7 days, dipped cabbage leaves. The protocol:
Phaedon larvae test Solvent: 7 parts by weight of dimethylfornamide Emulsifier: 1 part by weight of alkylaryl polyglycol ether To produce a suitable preparation of active compound, 1 part by weight of active compound is mixed with the stated amount of solvent and emulsifier, and the concentrate is diluted with water to the desired concentration. Cabbage leaves (Brassica oleracea) are treated by being dipped into the preparation of active compound of the desired concentration and populated with mustard beetle larvae (Phaedon cochleariae) while the leaves are still moist.

[4] abbreviates: active compound concentration of 0.01%, after 7 days, dipped bean plants.

In turn, `CCOC(=O)N1CC(c2ccc(-c3ccc(OC(F)(F)F)cc3)cc2)N=C1c1c(F)cccc1F` (stereo not drawn) [Example I-3, 1-ethoxycarbonyl4-(4′-trifluoromethoxy-4-biphenylyl)-2-(2,6-difluoro-phenyl)-4,5-dihydro-1H-imidazole] registered a melting point of 105 to 107 °C. This compound also registered a kill in data set [1] of 100%. In data set [2] (168 h), the kill is 100%. The same compound came in with an efficacy in the data set with Lucilia cuprina larvae of 100%.
`CCOC(=O)N1CC(c2ccc(-c3ccc(OC(F)(F)F)cc3)cc2)N=C1c1ccccc1Cl` (stereo not drawn) [Example I-4, 2-(2-chlorophenyl)-1-ethoxycarbonyl-4-(4′-trifluormethoxy-4-biphenylyl)-4,5-dihydro-1H-imidazole]: the kill in data set [3] and in data set [1] was 100% throughout.
In the case of `N#CN1CC(c2ccc(-c3ccc(OC(F)(F)F)cc3)cc2)N=C1c1c(F)cccc1F` (stereo not drawn) [Example I-5a, 1-cyano-4-(4′-trifluoromethoxy-4-biphenylyl)-2-(2,6-difluorophenyl)-4,5-dihydro-1H-imidazole], the melting point was in the range of 123 to 124 °C. Further, the kill in data set [3] stood at 100%. Further, the kill in data set [1] was 100%. In data set [2] (setting [4]), this compound yielded a kill of 100%.
Take `N#CN1C(c2c(F)cccc2F)=NCC1c1ccc(-c2ccc(OC(F)(F)F)cc2)cc1` (stereo not drawn) [Example I-5b, 3-cyano-4-(4′-trifluoromethoxy-4-biphenylyl)-2-(2,6-difluorophenyl)-4,5-dihydro-3H-imidazole]: the kill in data set [3], in data set [1] and in data set [2] (setting [4]) was 100% each time.
Turning to `CCOCN1CC(c2ccc(-c3ccc(OC(F)(F)F)cc3)cc2)N=C1c1c(F)cccc1F` (stereo not drawn) [Example I-6a, 1-ethoxymethyl-4-(4′-trifluoromethoxy-4-biphenylyl)-2-(2,6-difluorophenyl)-4,5-di-hydro-1H-imidazole], the kill in data set [3], in data set [1] and in data set [2] (setting [4]) was 100% each time.
Consider `CCOCN1C(c2c(F)cccc2F)=NCC1c1ccc(-c2ccc(OC(F)(F)F)cc2)cc1` (stereo not drawn) [Example I-6b, 3-ethoxymethyl-4-(4′-trifluoromethoxy-4-biphenylyl)-2-(2,6-difluorophenyl)-4,5-di-hydro-3H-imidazole], for which the kill in data set [3] is given as 100%.
In the case of `CC(=O)N1CC(c2ccc(-c3ccc(OC(F)(F)F)cc3)cc2)N=C1c1c(F)cccc1F` (stereo not drawn) [Example I-7a, 1-acetyl-4-(4′-trifluoromethoxy-4-biphenylyl)-2-(2,6-difluorophenyl)-4,5-dihydro-1H-imidazole], the values for the kill in data set [3], in data set [1] and in data set [2] (setting [4]) were 90%, 100% and 100%, respectively.
Turning to `NC(=S)N1CC(c2ccc(-c3ccc(OC(F)(F)F)cc3)cc2)N=C1c1c(F)cccc1F` (stereo not drawn) [Example I-8, 4-(4′-trifluoromethoxy4-biphenylyl)-2-(2,6-difluorophenyl)-1-thiocarbamoyl-4,5-dihydro-1H-imidazole], the melting point was 93 to 95 °C. Further, the kill in data set [3] was found to be 100%. For the same compound, in data set [1], the kill was 100%. This compound also showed a kill in data set [2] (setting [4]) of 95%.
